Experimental findings from US20190110990A1, “LIPOPROTEINS CONTAINING PLATINUM COMPLEXES FOR THE TREATMENT OF CANCER” (UNIVERSITE DE BOURGOGNE, priority 2016, published 2019) are described below.

Assay [1] relates to SW480 colorectal cancer lines. The assay can be described thus: Cell viability of SW480 cells by flow cytometry. Type of assay: cell-based. The conditions noted are these: SW480, 48 hours, final cisplatin concentration 25 μM. The procedure: The cell viability was then evaluated by flow cytometry.
In general terms: A flow cytometer gives signals particle by particle.

In the next assay the test system is human macrophages. The experiment in a line: ROS production by M2 macrophages (DHE labelling, flow cytometry). Format: cell-based. Conditions: 2 hours, final cisplatin concentration 25 μM, basal (CTL) 8.2%. The procedure:
After 7 days of culture in human M-CSF from Miltenyi, Biotec. (Macrophage Colony-Stimulating Factor) at 100 ng/ml, human macrophages were differentiated, from monocytes, into M2 alternative phenotype macrophages (protumoral). […] The production of reactive oxygen species (ROS, representative of an anti-tumour action) by the macrophages was then determined by flow cytometry after labelling with Dihydroethidium (DHE). […] Furthermore, the native HDLs, native LDLs and the LDL-Cis had no effect on ROS production by the macrophages.
The same protocol was repeated so as to compare the effect between the HDL-Cis and the oxidised LDL lipoproteins charged with cisplatin (LDLox+Cis) (see FIG. 2C). […] The oxidised LDLs were obtained by incubating native
LDLs (cholesterol, 1 mM) for 24 hours at 37° C. in the presence of copper sulphate (5 μM). After oxidation, the oxidised LDLs are dialysed in a PBS buffer.

On to `N.N.[Cl][Pt][Cl]` [non-vectorised cisplatin, Cis-diamine-dichloro-platinum (II)], for which the cancer cell mortality in assay [1] is 41%. Also, the “ROS production / macrophage activation” value in the assay on human macrophages is on record as 18.2%.
